ChEMBL document CHEMBL1201862, “PubChem BioAssay data set” (2004)
Active and inactive are the calls of the source.

What was measured:
[1] = off-target signal loss in HeLa-CEM21 co-culture – HeLa F-luc CTL cells, cherry-picked, counter-screen for HIV-1 Env fusion inhibitor project, dose response (AID 652040); type: functional, cell-based;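 also: potency for signal decrease marking cytotoxic or nonspecific inhibition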
[2] = inhibitors of HIV Env-driven cell fusion, dose response, cherry-pick (AID 652057); type: functional, cell-based
[3] = ZM109 Env clade C HIV-1 fusion inhibitors, dose response, HeLa effector, CEM target cells, luciferase, cherry-pick (AID 652058); type: functional, cell-based
[4] = inhibitors of clade B AD8 Env fusion, dose response, cell-based, cherry-pick (AID 652062); type: functional;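 also: luciferase signal from cell-cell fusion driven by HIV-1 clade B AD8 Env; potency is for inhibitors of fusion seen as a drop in luminescence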
[5] = CEM21 lymphoblast cell cytotoxicity, dose response, cytotoxicity control for viral fusion inhibitor project, CellTiter-Glo luminescence, cherry-picked (AID 652042); type: functional, cell-based;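 also: potency for signal decrease meaning cytotoxicity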
[6] = target: T1, Fatty acid synthase (Homo sapiens, UniProt P49327); test: FAS thioesterase domain inhibitors, dose response, biochemical, endpoint fluorescence intensity, uHTS hits (AID 624327); type: functional;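 also: fluorescence from hydrolysis of an O-methyl fluorescein acyl ester substrate by the enzyme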
T1 sequence (P49327 whole entry, the tested form may be a part): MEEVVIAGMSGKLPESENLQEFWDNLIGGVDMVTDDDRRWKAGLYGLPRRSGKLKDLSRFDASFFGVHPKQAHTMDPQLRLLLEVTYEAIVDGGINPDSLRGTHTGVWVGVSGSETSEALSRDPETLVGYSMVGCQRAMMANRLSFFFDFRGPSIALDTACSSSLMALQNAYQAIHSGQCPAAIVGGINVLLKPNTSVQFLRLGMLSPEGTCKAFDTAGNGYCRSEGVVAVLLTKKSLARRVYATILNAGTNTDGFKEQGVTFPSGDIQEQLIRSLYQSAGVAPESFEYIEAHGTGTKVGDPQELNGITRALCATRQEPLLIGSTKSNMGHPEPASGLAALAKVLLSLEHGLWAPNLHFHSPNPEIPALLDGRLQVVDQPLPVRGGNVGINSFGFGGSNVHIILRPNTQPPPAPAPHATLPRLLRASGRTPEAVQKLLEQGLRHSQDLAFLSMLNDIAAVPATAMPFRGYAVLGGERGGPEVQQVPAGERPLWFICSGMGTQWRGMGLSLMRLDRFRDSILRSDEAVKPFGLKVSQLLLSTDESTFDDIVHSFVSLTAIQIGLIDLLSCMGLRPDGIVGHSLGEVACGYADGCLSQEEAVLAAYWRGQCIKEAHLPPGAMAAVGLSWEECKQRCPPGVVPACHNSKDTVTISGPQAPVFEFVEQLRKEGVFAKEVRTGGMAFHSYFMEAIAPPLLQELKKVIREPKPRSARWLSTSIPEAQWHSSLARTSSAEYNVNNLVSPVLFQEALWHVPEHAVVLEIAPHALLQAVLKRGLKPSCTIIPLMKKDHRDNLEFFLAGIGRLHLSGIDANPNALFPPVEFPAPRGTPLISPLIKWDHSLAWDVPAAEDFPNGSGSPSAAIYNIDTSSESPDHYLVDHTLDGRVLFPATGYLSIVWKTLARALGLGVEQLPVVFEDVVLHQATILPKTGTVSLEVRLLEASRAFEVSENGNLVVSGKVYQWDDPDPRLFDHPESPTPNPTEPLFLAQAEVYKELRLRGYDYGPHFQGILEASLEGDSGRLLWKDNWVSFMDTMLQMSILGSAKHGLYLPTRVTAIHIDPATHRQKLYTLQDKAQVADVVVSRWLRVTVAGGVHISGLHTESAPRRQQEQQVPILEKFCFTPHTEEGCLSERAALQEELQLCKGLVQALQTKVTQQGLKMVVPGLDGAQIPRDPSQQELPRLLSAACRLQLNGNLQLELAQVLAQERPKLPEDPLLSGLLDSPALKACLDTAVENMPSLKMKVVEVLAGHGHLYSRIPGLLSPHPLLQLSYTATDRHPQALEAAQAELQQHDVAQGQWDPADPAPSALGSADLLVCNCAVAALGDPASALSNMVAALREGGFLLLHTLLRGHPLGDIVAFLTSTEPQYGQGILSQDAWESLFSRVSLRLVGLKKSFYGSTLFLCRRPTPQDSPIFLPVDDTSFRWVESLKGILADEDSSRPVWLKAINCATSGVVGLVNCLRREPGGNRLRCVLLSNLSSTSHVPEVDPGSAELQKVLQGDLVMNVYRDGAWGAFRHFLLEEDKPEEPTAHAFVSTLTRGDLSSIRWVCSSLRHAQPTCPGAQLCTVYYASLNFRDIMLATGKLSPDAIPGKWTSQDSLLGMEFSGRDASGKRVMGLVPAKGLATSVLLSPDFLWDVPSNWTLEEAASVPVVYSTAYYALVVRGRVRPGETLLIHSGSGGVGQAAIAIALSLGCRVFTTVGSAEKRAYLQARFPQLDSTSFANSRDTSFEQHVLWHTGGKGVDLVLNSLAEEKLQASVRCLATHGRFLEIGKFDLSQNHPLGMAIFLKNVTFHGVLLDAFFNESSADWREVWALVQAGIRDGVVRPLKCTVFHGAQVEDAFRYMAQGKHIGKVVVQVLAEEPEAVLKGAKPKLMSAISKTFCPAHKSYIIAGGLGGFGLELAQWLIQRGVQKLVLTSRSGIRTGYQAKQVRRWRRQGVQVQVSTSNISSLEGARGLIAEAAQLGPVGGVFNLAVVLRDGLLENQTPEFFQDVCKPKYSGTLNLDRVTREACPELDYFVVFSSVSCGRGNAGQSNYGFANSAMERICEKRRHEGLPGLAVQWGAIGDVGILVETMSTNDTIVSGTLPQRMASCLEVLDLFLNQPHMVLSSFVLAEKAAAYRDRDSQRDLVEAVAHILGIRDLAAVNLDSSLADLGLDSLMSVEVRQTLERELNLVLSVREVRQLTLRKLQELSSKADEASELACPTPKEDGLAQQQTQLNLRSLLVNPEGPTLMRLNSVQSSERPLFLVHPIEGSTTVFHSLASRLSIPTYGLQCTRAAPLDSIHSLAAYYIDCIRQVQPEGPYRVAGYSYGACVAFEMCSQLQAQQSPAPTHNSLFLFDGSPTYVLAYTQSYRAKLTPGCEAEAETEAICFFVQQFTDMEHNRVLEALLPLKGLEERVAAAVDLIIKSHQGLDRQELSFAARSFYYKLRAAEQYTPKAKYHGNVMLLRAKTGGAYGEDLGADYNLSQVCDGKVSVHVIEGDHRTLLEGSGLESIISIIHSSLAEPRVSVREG

[7] = target: T1, Fatty acid synthase; test: FAS thioesterase domain inhibitors, dose response, biochemical, kinetic fluorescence intensity (AID 624326); type: functional;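 also: rate of fluorescence rise from hydrolysis of a fluorogenic O-methyl fluorescein ester substrate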
[8] = target: T2, Apoptotic protease-activating factor 1 (Homo sapiens, UniProt O14727); type: functional
T2 sequence (O14727 whole entry): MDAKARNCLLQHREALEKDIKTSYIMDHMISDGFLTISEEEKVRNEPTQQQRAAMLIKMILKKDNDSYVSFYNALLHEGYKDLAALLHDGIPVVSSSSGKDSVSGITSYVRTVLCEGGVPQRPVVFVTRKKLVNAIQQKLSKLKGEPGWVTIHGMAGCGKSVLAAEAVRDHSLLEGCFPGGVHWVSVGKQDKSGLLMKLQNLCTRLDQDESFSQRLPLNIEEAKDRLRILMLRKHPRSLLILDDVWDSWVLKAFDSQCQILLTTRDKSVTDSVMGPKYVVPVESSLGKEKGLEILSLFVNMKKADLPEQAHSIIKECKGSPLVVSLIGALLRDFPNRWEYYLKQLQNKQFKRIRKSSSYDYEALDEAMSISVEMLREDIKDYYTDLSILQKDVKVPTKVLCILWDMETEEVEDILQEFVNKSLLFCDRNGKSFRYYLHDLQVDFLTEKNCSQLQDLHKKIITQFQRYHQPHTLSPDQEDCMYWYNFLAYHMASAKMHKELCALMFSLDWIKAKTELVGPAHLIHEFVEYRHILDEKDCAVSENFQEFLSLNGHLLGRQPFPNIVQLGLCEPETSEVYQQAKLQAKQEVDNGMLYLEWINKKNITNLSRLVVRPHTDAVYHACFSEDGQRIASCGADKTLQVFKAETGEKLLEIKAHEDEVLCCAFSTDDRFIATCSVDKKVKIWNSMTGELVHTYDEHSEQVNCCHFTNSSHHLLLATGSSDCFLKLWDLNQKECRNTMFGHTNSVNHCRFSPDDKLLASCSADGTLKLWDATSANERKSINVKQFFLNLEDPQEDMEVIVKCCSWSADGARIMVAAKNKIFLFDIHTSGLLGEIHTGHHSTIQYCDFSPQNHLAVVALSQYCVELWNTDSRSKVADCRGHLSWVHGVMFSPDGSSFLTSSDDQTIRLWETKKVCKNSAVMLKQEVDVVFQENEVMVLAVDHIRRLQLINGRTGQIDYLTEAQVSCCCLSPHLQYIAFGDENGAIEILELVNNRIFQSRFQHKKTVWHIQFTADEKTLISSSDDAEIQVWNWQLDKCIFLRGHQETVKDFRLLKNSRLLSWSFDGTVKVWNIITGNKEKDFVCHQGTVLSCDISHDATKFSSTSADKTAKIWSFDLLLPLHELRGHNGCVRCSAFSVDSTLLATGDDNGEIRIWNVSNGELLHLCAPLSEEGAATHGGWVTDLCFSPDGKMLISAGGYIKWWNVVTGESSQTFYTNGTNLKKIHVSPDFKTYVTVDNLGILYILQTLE

[9] = target: T3, Protein RecA (Mycobacterium tuberculosis, UniProt P9WHJ3); test: Fluorescence Cell-Free Homogeneous Dose Retest to Identify Inhibitors of RecA-Intein Splicing Activity. [Related pubchem assays (depositor defined):AID2097, AID2223, AID489010, AID492950]; type: functional
T3 sequence (P9WHJ3 whole entry): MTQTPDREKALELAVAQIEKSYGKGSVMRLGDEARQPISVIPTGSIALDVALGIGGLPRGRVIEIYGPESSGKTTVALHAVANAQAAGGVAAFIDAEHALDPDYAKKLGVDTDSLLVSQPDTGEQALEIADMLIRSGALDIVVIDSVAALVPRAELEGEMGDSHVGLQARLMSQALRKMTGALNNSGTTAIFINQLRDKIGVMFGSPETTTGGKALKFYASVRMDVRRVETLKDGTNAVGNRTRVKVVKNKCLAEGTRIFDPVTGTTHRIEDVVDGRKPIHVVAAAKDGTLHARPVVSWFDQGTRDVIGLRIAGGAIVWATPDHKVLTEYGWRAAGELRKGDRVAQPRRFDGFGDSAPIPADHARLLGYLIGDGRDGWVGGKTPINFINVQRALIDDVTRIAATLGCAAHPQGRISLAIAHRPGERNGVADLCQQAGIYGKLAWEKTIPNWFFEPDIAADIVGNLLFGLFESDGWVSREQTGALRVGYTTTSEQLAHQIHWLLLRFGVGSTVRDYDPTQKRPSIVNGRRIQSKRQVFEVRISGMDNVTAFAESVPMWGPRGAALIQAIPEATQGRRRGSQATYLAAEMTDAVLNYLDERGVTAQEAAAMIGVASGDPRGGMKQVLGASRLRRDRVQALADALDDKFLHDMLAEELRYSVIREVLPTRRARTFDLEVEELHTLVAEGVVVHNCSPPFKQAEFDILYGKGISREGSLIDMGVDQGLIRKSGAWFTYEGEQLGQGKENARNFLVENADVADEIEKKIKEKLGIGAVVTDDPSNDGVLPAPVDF

[10] = target: T4, Replicative DNA helicase DnaB (Mycobacterium tuberculosis, UniProt P9WMR3); test: DnaB intein splicing inhibitors, dose response, biochemical, cell-free fluorescence (AID 449749); type: functional
T4 sequence (P9WMR3 whole entry): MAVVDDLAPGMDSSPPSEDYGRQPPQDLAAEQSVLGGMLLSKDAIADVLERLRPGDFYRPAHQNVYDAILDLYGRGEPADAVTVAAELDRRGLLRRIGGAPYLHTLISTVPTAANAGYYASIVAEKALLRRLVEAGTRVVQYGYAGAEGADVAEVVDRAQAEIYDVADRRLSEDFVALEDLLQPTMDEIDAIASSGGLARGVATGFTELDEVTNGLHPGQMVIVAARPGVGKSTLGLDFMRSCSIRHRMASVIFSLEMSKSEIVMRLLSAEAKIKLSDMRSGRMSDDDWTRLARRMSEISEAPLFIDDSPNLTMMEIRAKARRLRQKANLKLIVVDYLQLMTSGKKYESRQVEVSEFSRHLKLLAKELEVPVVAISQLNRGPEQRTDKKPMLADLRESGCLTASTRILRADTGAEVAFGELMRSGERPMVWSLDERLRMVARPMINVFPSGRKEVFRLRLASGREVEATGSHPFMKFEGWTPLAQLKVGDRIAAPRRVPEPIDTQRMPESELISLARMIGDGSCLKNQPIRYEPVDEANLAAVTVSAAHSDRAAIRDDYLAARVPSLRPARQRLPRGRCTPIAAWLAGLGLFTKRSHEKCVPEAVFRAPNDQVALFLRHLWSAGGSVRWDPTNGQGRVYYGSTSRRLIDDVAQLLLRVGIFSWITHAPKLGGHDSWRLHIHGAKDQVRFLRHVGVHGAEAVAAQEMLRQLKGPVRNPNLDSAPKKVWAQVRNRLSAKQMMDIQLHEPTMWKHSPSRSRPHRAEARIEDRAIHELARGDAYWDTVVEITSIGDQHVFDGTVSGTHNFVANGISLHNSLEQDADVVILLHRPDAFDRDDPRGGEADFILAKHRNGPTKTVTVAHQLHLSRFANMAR

[11] = Luminescence Cell-Based Dose Response HTS to Identify Inhibitors of 5'UTR Stem-Loop Driven Prion Protein mRNA Translation in H4 Neuroglioblastoma Cells. [Related pubchem assays: 1827 (Project Summary), 1813 (Primary HTS)]; type: functional
[12] = inhibitors of SNCA 5'UTR-driven reporter translation, confirmation, H4 neuroglioma cells, luminescence (AID 1988); type: functional, cell-based
[13] = HepG2 cell cytotoxicity, dose response, cytotoxicity control for Shn3 inhibitor project, CellTiter-Glo, cherry-picked (AID 624134); type: functional, cell-based
[14] = Luminescence Cell-Based Dose Retest to Confirm Inhibitors of Cancer Stem Cells. [Related pubchem assays (depositor defined):AID2717, AID2721]; type: functional; settings: Homo sapiens
[15] = control 3'UTR Renilla luciferase suppression, dose response, counter-screen for Shn3 inhibitor project, cell-based, Clone20-Shn3RL, cherry-picked (AID 624133); type: functional
[16] = Shn3 3'UTR reporter inhibitors, dose response, cell-based, Clone20 osteoblasts, firefly luciferase, cherry-picked (AID 624132); type: functional;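 also: firefly luciferase luminescence from reporter carrying the Shn3 3'UTR in osteoblasts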
[17] = inhibitors of firefly luciferase expression or activity, dose response, H4 neuroglioma cells, luminescence (AID 1990); type: functional, cell-based
[18] = cells; type: functional, cell-based
[19] = cells; type: functional, cell-based; remark: listed apart in the source

SMILES | AC50 [1] | AC50 [2] | AC50 [3] | AC50 [4] | IC50 [6] | IC50 [7] | also measured
COc1ccc(C(O)(CCC(C)C)C(CN2CCOCC2)c2ccccc2)cc1 (stereo not given) | 23.8 µM (active) | 5.79 µM (active) | 23.3 µM (active) | 40.3 µM (active) | – | – | AC50 [5]: 51.9 µM (active)
Cc1ccc(S(=O)(=O)N2CCC(=O)N(CCOC(=O)Nc3cccc(Cl)c3)CC2)cc1 | 4.11 µM (active) | 3.12 µM (active) | 4.6 µM (active) | 7.72 µM (active) | – | – | –
O=C(/C=C/c1cc([N+](=O)[O-])ccc1OC(F)F)Nc1cccc2ccccc12 | – | – | – | – | 24.6 µM (inactive) | 61.9 µM (inactive) | –
CCN1CCN(S(=O)(=O)c2ccc(Cl)c(C(=O)N(C)Cc3ccc(C(C)(C)C)cc3)c2)CC1 | – | – | – | – | 13.5 µM (active) | 17.3 µM (active) | –
C#CCN(C[C@H]1[C@H](OC(=O)NC2CCCC2)[C@H](OC(=O)NC2CCCC2)C[C@H]2C(=O)N(c3ccccc3)C(=O)[C@@H]12)S(=O)(=O)c1ccc(C)cc1 | – | – | – | – | 47.5 µM (inactive) | 23 µM (inactive) | –
Cc1cc(C)c(S(=O)(=O)/N=C2\C=C(NS(=O)(=O)c3ccccc3)C(=O)c3ccccc32)c(C)c1 | – | – | – | – | – | – | IC50 [8]: 31.1 µM (active)
CC(=O)N(C1=C(N)C(=O)c2ccccc2C1=O)c1ccccc1 | – | – | – | – | – | – | EC50 [9]: 2.18 µM (active); IC50 [8]: 10.4 µM (active); AC50 [10]: 3.46 µM (active)
Fc1ccc(C(OCCN2CCN(CCCc3ccccc3)CC2)c2ccc(F)cc2)cc1 | 13 µM (active) | 8.27 µM (active) | 8.74 µM (active) | 12.3 µM (active) | – | – | EC50 [11]: > 120 µM (not active); EC50 [12]: > 120 µM (not active); AC50 [13]: 38.8 µM (active); AC50 [14]: 3.05 µM (active); AC50 [15]: 8.11 µM (active); AC50 [16]: 6.17 µM (active); AC50 [5]: 14.5 µM (active); EC50 [17]: 9.61 µM (active)
C[C@H](CO)N1C[C@H](C)[C@@H](CN(C)C(=O)NC2CCCCC2)Oc2c(NC(=O)Nc3ccccc3)cccc2C1=O | – | – | – | – | 4.16 µM (active) | 3.04 µM (active) | –
CC(C)(C)CN1CCNC(=O)C1CC(=O)NCCc1ccccc1F (stereo not given) | – | – | – | – | – | – | IC50 [18]: > 29.9 µM (inactive); EC50 [19]: > 29.9 µM (inactive)
